Each structure is given as a SMILES string. Like-named read-outs stand apart in the source and are kept apart here.

The target of one assay is T1, Thrombin receptor (Homo sapiens, UniProt P25116).
T1 construct: Platelet membranes were prepared using a modification of the method of Natarajan et al; tissue North Jersey Blood Center (East Orange, N.J.); host or cells: platelets (platelet concentrates), membranes
T1 sequence (P25116 22-425): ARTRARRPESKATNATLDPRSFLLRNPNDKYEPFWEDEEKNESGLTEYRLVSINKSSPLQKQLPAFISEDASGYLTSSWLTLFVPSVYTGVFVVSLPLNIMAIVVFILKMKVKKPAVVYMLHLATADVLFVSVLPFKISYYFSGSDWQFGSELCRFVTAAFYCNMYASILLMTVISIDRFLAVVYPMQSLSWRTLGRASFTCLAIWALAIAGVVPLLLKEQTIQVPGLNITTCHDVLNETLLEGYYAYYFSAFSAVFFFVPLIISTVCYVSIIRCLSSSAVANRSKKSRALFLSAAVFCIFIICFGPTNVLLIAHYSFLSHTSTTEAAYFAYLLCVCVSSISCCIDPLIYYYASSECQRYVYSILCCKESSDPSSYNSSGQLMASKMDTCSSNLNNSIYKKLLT
The experiment in a line: In vitro Thrombin Receptor Antagonist Assay ([3H]haTRAP radioligand binding, platelet membranes). Conditions: [3H]haTRAP 10 nM, read-out: IC50 (concentration at which a 50% inhibition of thrombin receptor was observed). How it is done:
In Vitro Testing Procedure for Thrombin Receptor Antagonists:
Preparation of [^3 H]haTRAP
The vessel was attached to the tritium line, frozen in liquid nitrogen and evacuated. […] At the completion of the reaction, the excess tritium was removed and the reacted peptide solution was diluted with DMF (0.5 ml) and filtered to remove the catalyst. The collected DMF solution of the crude peptide was diluted with water and freeze dried to remove the labile tritium. The solid peptide was redissolved in water and the freeze drying process repeated. The tritiated peptide ([^3 H]haTRAP) was dissolved in 0.5 ml of 0.1% aqueous TFA and purified by HPLC using the following conditions: column, Vydac C18, 25 cm×9.4 mm I.D.; mobile phase, (A) 0.1% TFA in water, (B) 0.1% TFA in CH3 CN; gradient, (A/B) from 100/0 to 40/60 over 30 min; flow rate, 5 ml/min; detection, UV at 215 nm.
Preparation of platelet membranes
All steps were carried out at 4° C. under approved biohazard safety conditions. Platelets were centrifuged at 100×g for 20 minutes at 4° C. to remove red cells. The supernatants were decanted and centrifuged at 3000×g for 15 minutes to pellet platelets. Platelets were resuspended in 10 mM Tris-HCl, pH 7.5,150 mM NaCl, 5 mM EDTA, to a total volume of 200 ml and centrifuged at 4400×g for 10 minutes. This step was repeated two additional times. Platelets were resuspended in 5 mM Tris-HCl, pH 7.5, 5 mM EDTA to a final volume of approximately 30 ml and were homogenized with 20 strokes in a Dounce homogenizer. Membranes were pelleted at 41,000×g, resuspended in 40-50 ml 20 mM Tris-HCl, pH 7.5,1 mM EDTA, 0.1 mM dithiothreitol, and 10 ml aliquots were frozen in liquid N2 and stored at -80° C. To complete membrane preparation, aliquots were thawed, pooled, and homogenized with 5 strokes of a Dounce homogenizer. Membranes were pelleted and washed 3 times in 10 mM triethanolamine-HCl, pH 7.4, 5 mM EDTA, and resuspended in 20-25 ml 50 mM Tris-HCl, pH 7.5, 10 mM MgCl2, 1 mM EGTA, and 1% DMSO. Aliquots of membranes were frozen in liquid N2 and stored at -80° C.
High Throughput Thrombin Receptor Radioligand Binding Assay
Stock solutions (10 mM in 100% DMSO) of test compounds were further diluted in 100% DMSO. Unless otherwise indicated, 10 μl of diluted compound solutions and 90 μl of radioligand (a final concentration of 10 nM in 5% DMSO) were added to each well, and the reaction was started by the addition of 100 μl of membranes (40 μg protein/well). […] Compounds were tested at three concentrations (0.1, 1 and 10 μM). The plates were covered and vortex-mixed gently on a Lab-Line Titer Plate Shaker for 1 hour at room temperature. Packard UniFilter GF/C filter plates were soaked for at least 1 hour in 0.1% polyethyleneimine. The incubated membranes were harvested using a Packard FilterMate Universal Harvester and were rapidly washed four times with 300 μl ice cold 50 mM Tris-HCl, pH 7.5, 10 mM MgCl2, 1 mM EGTA. MicroScint 20 scintillation cocktail (25 μl) was added to each well, and the plates were counted in a Packard TopCount Microplate Scintillation Counter. The specific binding was defined as the total binding minus the nonspecific binding observed in the presence of excess (50 μM) unlabeled haTRAP. The % inhibition by a compound of [^3 H]haTRAP binding to thrombin receptors was calculated from the following relationship: […]
A(pF-F)R(ChA)(hR)Y--NH2 and A(pF-F)R(ChA)(hR)(I2 -Y)--NH2, were custom synthesized by AnaSpec Inc. (San Jose, Calif.). […] The gas was subsequently loaded and stored on an IN/US Systems Inc. Trisorber.

Assay [1] relates to platelet aggregation (platelets, haTRAP or thrombin). Nature of the assay: In vitro Platelet Aggregation Inhibition (PAI). Format: cell-based. The note with it: Homo sapiens, read-out: In vitro PAI IC50. How it is done: In vitro Platelet Aggregation Procedure:
Blood was obtained from healthy human subjects who were aspirin free for at least 7 days by venipuncture using ACD as anticoagulant. Platelet rich plasma was prepared by centrifugation at 100×g for 15 minutes at 15 deg C. Platelets were pelleted at 3000×g and washed twice in buffered saline containing 1 mM EGTA and 20 μg/ml apyrase to inhibit aggregation. Aggregation was performed at room temperature in buffered saline supplemented with 0.2 mg/ml human fibrinogen. Test compound and platelets were preincubated in 96-well flat-bottom plates for 60 minutes. Aggregation was initiated by adding 0.3 μM haTRAP or 0.1 U/ml thrombin and rapidly vortexing the mixture using a Lab Line Titer Plate Shaker (speed 7). Percent aggregation was monitored as increasing light transmittance at 405 nm in a Spectromax Plate Reader.

Assay [2] has as its system platelet aggregation (Whole Blood, haTRAP). The experiment in a line: Ex-vivo Platelet Aggregation In Cynomolgus Whole Blood. The arrangement: species or system cynomolgus monkey. As for the experimental part: Protocol For Ex-Vivo Platelet Aggregation In Cynomolgus Whole Blood Drug administration and blood collection:
Conscious chaired cynomolgus monkeys are allowed to equilibrate for 30 min. A needle catheter is inserted into a brachial vein for infusion of test drugs. Another needle catheter is inserted into the other brachial or saphenous vein and used for blood sampling. In those experiments where the compound is administered orally only one catheter is used. A baseline blood sample (1-2 ml) is collected in vacutainer tubes containing a thrombin inhibitor CVS 2139 (100 μg/0.1 ml saline) as an anticoaculant. The drug is then infused intravenously over a period of 30 min. Blood samples (1 ml) are collected at 5, 10, 20, 30 min during and 30, 60, 90 min after termination of the drug infusion. In PO experiments the animals are dosed with the drug using a gavage cannula. Blood samples are collected at 0, 30, 60, 90, 120, 180, 240, 300, 360 min after dosing. […]
A 0.5 ml blood sample is added to 0.5 ml of saline and warmed to 37° C. in a Chronolog whole blood aggregometer. […] The agonist (haTRAP) is added by an adjustable volume pipette (5-25 μl) and the aggregation curve is recorded for 10 minutes. Maximum aggregation in 6 minutes following agonist is the value recorded.

Where [3] appears, read: 0.3 μM haTRAP or 0.1 U/ml thrombin, 60 min preincubation.

With `Cc1cc(C)nc(/C=C/[C@@H]2[C@H]3CCCC[C@@H]3C[C@@H]3C(=O)O[C@@H](C)[C@H]23)c1` [Example 1A], at Thrombin receptor, the IC50 turned out to be 1600 nM.

With `C[C@H]1OC(=O)[C@@H]2C[C@@H]3CCCC[C@H]3[C@H](/C=C/c3ccc4cc(O)ccc4n3)[C@H]12` [Example 1BN], the results for the IC50 (at Thrombin receptor; in assay [1] (setting [3])) were 6 nM and 100 to 300 nM, respectively.

Take `Cc1ccccc1-c1ccc(/C=C/[C@H]2[C@@H]3CCCC[C@H]3C[C@H]3C(=O)O[C@H](C)[C@@H]23)nc1` [Example 1DK]: the IC50 at Thrombin receptor was determined as 14 nM.

Turning to `C[C@H]1OC(=O)[C@@H]2C[C@@H]3CCCC[C@H]3[C@H](/C=C/c3ccc(-c4cccc5c4OCO5)cn3)[C@H]12` [Example 1DR], the IC50 in assay [1] (setting [3]) was 100 nM.

Consider `C[C@H]1OC(=O)[C@@H]2C[C@@H]3CCCC[C@H]3[C@H](/C=C/c3ccc(-c4cc(C(F)(F)F)cc(C(F)(F)F)c4)cn3)[C@H]12` [Example 1ES], for which the IC50 on Thrombin receptor amounted to 4 nM.

As for `Cc1cccc(/C=C/[C@H]2[C@H]3[C@H](C)OC(=O)[C@H]3C=C3CCCC[C@@H]32)n1` [Example 2E], the IC50 on Thrombin receptor came to 350 nM.

Consider `O=C1OCC2C1Cc1ccccc1C2C=Cc1ccc(-c2cccc(C(F)(F)F)c2)cn1` (stereo not shown) [Example 3K], for which the IC50 at Thrombin receptor worked out at 10 nM.

As to `C[C@H]1OC(=O)[C@@H]2C[C@@H]3CCCC[C@H]3[C@H](/C=C/c3ccc(-c4cccc(C(F)(F)F)c4)cn3)[C@H]12` [Example 4, (+)-(3R,3aS,4S,4aR,8aS,9aR)-Decahydro-4-[(E)-2-[5-[3-(trifluoromethyl)phenyl]-2-pyridinyl]ethenyl]-3-Methylnaphtho-[2,3-c]furan-1(3H)-one], in assay [2] (3 mpk, oral in betahydroxypropylcyclodextrin as cosolvent), the “Ex-vivo C. Monkey Whole Blood PAI” value is reported as 100%. Moreover, in assay [1], the IC50 was 67 nM.

Consider `CNC(=O)C1Cc2ccccc2C(C=Cc2ccc(-c3cccc(C(F)(F)F)c3)cn2)C1CO` (stereo not shown) [Example 7], for which the IC50 at Thrombin receptor amounted to 1140 nM.

Regarding `CCc1cccc(/C=C/[C@H]2[C@@H]3CCCC[C@H]3C[C@H]3C(=O)O[C@H](C)[C@@H]23)n1` [Example 8, (+)-(3R,3aS,4S,4aR,8aS,9aR)-Decahydro-4-[(E)-2-(6-ethyl-2-pyridinyl)ethenyl]-3-methylnaphtho[2,3-c]furan-1(3H)-one], the “Ex-vivo C. Monkey Whole Blood PAI” value in assay [2] (10 mpk, i.v. infusion over 30 min. in 5% dextrose) worked out at 100%. For the same compound, in assay [1], the IC50 was 300 nM.
